In series [1] the target is T1, Nox4 (Homo sapiens, UniProt Q9NPH5).
T1 construct: expressed in transfected cells
T1 sequence (Q9NPH5 1-578): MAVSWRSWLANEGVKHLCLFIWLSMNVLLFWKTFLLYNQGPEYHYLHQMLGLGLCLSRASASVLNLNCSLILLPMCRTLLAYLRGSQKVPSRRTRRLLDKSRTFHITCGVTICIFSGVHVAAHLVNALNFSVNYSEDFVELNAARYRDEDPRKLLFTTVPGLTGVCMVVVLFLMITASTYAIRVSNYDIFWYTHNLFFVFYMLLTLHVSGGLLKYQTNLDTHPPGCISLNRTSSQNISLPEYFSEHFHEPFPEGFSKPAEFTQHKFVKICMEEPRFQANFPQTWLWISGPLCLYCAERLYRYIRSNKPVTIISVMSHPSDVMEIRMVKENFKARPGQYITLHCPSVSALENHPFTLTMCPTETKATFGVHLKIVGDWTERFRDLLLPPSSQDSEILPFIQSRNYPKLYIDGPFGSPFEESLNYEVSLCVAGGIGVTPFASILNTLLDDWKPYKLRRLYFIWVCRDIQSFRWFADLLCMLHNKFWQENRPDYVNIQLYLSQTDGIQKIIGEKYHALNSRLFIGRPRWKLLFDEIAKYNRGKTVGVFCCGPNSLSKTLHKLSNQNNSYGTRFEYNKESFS
T1 sequence (P13498 1-195 partner): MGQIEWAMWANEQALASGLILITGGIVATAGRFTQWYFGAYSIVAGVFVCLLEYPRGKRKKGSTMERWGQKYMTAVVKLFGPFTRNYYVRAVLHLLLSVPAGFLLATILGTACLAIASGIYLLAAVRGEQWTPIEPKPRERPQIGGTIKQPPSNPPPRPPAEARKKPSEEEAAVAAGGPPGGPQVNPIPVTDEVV
Briefly: Inhibition of Nox4-dependent H2O2 production in HEK/Nox4 cells, Amplex Red assay. The series is classed as cell-based. To be noted: for remaining activity at 1 µM: 1 μM final concentration; for remaining activity at 1 µM / remaining activity at 5 µM / remaining activity at 10 µM: DMSO vehicle = 1.000, n = 3-10, read-out: H2O2 production relative to vehicle control, Mean; for remaining activity at 5 µM: 5 μM final concentration; for remaining activity at 10 µM: 10 μM final concentration. The protocol: A high-throughput screening (HTS) assay was established for Nox4 inhibition, utilizing HEK293 cells that stably over-express Nox4 (HEK/Nox4 cells), which generate high levels of H2O2(Cheng G et al, Gene: 2001, p. 131-140). Over 30,000 compounds have been screened and medicinal chemistry efforts have led to the synthesis of numerous analogs and the identification of a chemically distinct series of selective Nox4 inhibitors. […] IC-50 was evaluated for UANox048 (FIG. 1B).
HEK cells stably transfected to overexpress Nox4 were treated with varying concentrations of test compounds, DPI (all-Nox inhibitor positive control), or DMSO (vehicle control) and incubated for 1 h (FIG. 1). (FIG. 1A) H2O2 presence was evaluated by Amplex Red assay. […] Values represent means±SEM; n=4. P values were calculated by student's two-tailed t test. *p<0.05, **p<0.01, *** p<0.001.

For series [2], the system named is HEK cells stably transfected to overexpress Nox4. Briefly: Cellular viability of HEK/Nox4 cells, CellTiter-Glo Assay. In kind it is cell-based. The settings on record: 1 h, FIG. 2C. As for the experimental part: Screening was performed to rule out false positives.
UANoxO48, DMSO (vehicle control), or catalase (known H2O2 scavenger positive control) was added to a cell-free assay containing exogenous H2O2(5 mM) and scavenger activity for H2O2 was assessed by (FIG. 2A) Amplex Red assay and (FIG. 2B) ROS-Glo assay (an HRP-free assay system to rule out assay interference). (FIG. 2C) HEK cells stably transfected to overexpress Nox4 were treated with UANox048, digitonin (an inducer of cell death), or DMSO (vehicle control) and incubated for 1 h. Cellular viability was evaluated by CellTiter-Glo Assay. Values represent means±SEM; n=4; P values were calculated by student's two-tailed t test. *p<0.05, **p<0.01, *** p<0.001.

A short description of series [3]: Differential scanning calorimetry (DSC) thermal stability. To be noted: solid state; room and body temperatures (32-37° C.). The series is classed as physicochemical. The text has this:
Differential scanning calorimetry (DSC) was used, a highly sensitive thermos-analytical technique to quantify the thermotropic properties and phase transitions of drug candidates. […] X-ray powder diffraction (XRPD) is a non-destructive material science “gold standard” method for measuring the degree of long-range molecular order in the powder. This is critical for solid-state characterization, where drug candidates yield a unique pattern for any given crystalline phase; this provides a ‘molecular fingerprint’ for crystallinity identification. […] Attenuated Total Reflection Fourier Transform Infrared (ATR-FTIR) Spectroscopy is a non-destructive molecular identification tool based on the absorption of infrared light by vibrational transitions in covalent bonds. This provides a ‘molecular fingerprint’ for chemical identification. ATR-FTIR permits fine discrimination between like materials and/or batch-to-batch quality verification; it is used to identify active pharmaceutical ingredients (API). […] Scanning Electron Microscopy (SEM) with Energy Dispersive X-ray (EDX) is used to visualize the synthesized particles in their native solid-state and quantify important particle properties which directly influence formulation, including surface structure, particle morphology and size, and particle size range distribution. […]
(Differential scanning calorimetry records heat flow against a reference as temperature is scanned.)

Series [4] deals with Caco-2 cells. Briefly: Caco-2 permeability. In kind it is in vitro ADME. The settings on record: 5 μM, 2 h. As for the experimental part:
(§1) In vitro absorption, distribution, metabolism, and excretion (ADME) were performed on selected analogs to assess their potential for continued pre-clinical development. UANox048 analog has favorable pharmacokinetic/pharmacodynamics properties, including a low molecular weight (384.4 g/mol), calculated log D value (4.07), and polar surface area (57.8 Å^2). The compounds were tested for cellular permeability and P-glycoprotein efflux susceptibility (P-gp efflux). […] P-gp efflux was calculated by comparing permeability through Caco-2 monolayers in both the apical-to-basolateral and basolateral-to-apical directions. Permeability for Caco-2 cells was determined by the lucifer yellow monolayer integrity test. Caco-2 cells were incubated with UANox048 (5 μM, 2 h) and flux of lucifer yellow across cell monolayers was determined by LC-MS/MS using electrospray ionization. Molecular weight, log D, and polar surface area calculations were performed with ChemDraw software.
On the technique in general: Passage across Caco-2 layers is used to estimate intestinal permeability.

The target of series [5] is T2, P-glycoprotein (Homo sapiens, UniProt P08183).
T2 construct: endogenous in cells; host or cells: Caco-2
The experiment in a line: P-glycoprotein efflux susceptibility in Caco-2 monolayers. The series is classed as in vitro ADME. The settings on record: apical-to-basolateral vs basolateral-to-apical. As for the experimental part:
as §1

T2 sequence (P08183 whole entry): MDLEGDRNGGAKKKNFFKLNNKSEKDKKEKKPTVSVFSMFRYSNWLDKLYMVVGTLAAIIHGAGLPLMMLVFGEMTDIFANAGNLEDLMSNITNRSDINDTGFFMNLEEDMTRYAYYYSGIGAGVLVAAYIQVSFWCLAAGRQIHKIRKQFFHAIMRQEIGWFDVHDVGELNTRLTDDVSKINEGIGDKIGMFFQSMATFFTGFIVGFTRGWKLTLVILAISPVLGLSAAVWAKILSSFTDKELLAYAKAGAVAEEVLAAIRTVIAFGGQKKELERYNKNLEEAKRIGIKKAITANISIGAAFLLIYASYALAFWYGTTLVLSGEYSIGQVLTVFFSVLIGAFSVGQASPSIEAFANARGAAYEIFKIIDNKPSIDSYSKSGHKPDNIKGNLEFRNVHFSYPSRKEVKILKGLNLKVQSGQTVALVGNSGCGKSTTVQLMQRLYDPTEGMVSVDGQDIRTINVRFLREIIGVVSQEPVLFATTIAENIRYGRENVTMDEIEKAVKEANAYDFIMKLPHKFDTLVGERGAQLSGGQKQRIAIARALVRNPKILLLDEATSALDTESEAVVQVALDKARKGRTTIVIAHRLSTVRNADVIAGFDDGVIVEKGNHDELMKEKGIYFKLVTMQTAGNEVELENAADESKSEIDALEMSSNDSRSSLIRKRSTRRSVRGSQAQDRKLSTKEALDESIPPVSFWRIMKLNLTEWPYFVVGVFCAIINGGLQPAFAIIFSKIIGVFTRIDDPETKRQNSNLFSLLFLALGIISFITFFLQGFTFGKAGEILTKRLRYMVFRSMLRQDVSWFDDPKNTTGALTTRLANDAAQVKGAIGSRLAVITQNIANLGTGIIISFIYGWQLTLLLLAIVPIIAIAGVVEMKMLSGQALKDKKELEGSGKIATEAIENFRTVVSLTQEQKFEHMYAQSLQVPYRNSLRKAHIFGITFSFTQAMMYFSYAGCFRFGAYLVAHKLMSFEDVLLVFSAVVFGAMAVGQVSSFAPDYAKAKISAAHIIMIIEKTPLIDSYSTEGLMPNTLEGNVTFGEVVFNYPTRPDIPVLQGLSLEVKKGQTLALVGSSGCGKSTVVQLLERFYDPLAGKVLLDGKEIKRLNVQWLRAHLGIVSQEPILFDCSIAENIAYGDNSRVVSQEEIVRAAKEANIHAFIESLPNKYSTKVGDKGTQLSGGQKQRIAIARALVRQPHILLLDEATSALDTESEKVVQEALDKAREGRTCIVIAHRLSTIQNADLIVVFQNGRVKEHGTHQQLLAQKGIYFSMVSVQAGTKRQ

`CC(CNS(=O)(=O)c1ccc(C(F)(F)F)cc1)N1CCc2ccccc21` (stereo not drawn) [UANOX048, N-(2-(indolin-1-yl)propyl)-4-(trifluoromethyl)benzenesulfonamide]: in series [1] (1 h, HEK/Nox4 cells), the remaining activity at 1 µM amounted to 89.3%, the remaining activity at 5 µM amounted to 76.5% and the remaining activity at 10 µM amounted to 69.3%. Also, half-maximal inhibition in series [1] (HEK/Nox4 cells, 1 h, Amplex Red, FIG. 1B) (IC50) required 4.8 µM. In series [1] (varying concentrations, Amplex Red, FIG. 1A), the “H2O2 generation by HEK/Nox4 cells” value is reported as “dose-dependent decrease”. For the same compound, the cellular viability result in series [2] is “does not affect cellular viability”. Moreover, the “stability (DSC)” value in series [3] is reported as “highly stable”. Also, the Caco-2 permeability entry in series [4] is reported as “high”. Further, the P-gp efflux result in series [5] is listed as “no P-gp efflux”.

For `CC(C)(CNS(=O)(=O)c1ccc(Oc2ccc(C(F)(F)F)cn2)cc1)N1CCc2ccccc21` [UANOX088], in series [1] (1 h, HEK/Nox4 cells), the remaining activity at 1 µM was 102%, the remaining activity at 5 µM came out at 90.3% and the remaining activity at 10 µM was determined as 79.6%.

Turning to `COc1ccc(S(=O)(=O)NCC(C)(C)N2CCc3ccccc32)cc1` [UANOX089, N-(2-(indolin-1-yl)-2-methylpropyl)-4-methoxybenzenesulfonamide], in series [1] (1 h, HEK/Nox4 cells), the remaining activity at 1 µM turned out to be 101%, the remaining activity at 5 µM was 83.6% and the remaining activity at 10 µM is 70.1%.

For the compound `CC(C)(CNS(=O)(=O)c1ccc(OC(F)(F)F)cc1)N1CCc2ccccc21` [UANOX090, N-(2-(indolin-1-yl)-2-methylpropyl)-4-(trifluoromethoxy)benzenesulfonamide], in series [1] (1 h, HEK/Nox4 cells), the remaining activity at 1 µM came out at 104%, the remaining activity at 5 µM came out at 88.7% and the remaining activity at 10 µM stood at 74.5%.

Regarding `O=C(CN1CCN(c2ncccn2)CC1)N1CCc2ccccc21` [UANOX0192, 1-(indolin-1-yl)-2-(4-(pyrimidin-2-yl)piperazin-1-yl)ethan-1-one], in series [1] (1 h, HEK/Nox4 cells), the remaining activity at 1 µM worked out at 96.4%, the remaining activity at 5 µM turned out to be 111% and the remaining activity at 10 µM was found to be 108%.

In the case of `COc1cccc(-c2ccc3c(c2)CCN3C(C)CNS(=O)(=O)N2CCN(C)CC2)c1` (stereo not drawn) [UANOX0254, N-(2-(5-(3-methoxyphenyl)indolin-1-yl)propyl)-4-methylpiperazine-1-sulfonamide], in series [1] (1 h, HEK/Nox4 cells), the remaining activity at 1 µM amounted to 87.8%, the remaining activity at 5 µM turned out to be 88% and the remaining activity at 10 µM amounted to 76.3%.

The values above are taken from US10654802B2, “Indoline derivatives and method for using and producing the same” (ARIZONA BOARD OF REGENTS ON BEHALF OF THE UNIVERSITY OF …, priority 2016, dated 2020).
